Here are results for 4 compounds from US4851436A, “HMG-CoA reductase inhibitors” (Merck & Co., Inc., priority 1987, dated 1989).

The subject of one data set is HMG-CoA reductase. Kind of data set: In vitro determination of HMG-CoA reductase inhibitory activity. The format is biochemical, rat. The conditions noted are these: for Relative Potency: Relative to compactin arbitrarily assigned a value of 100; for IC50: purified rat liver microsomal HMG-CoA reductase, 37° C., 40 minutes, pH 7.2. On the procedure:
The intrinsic HMG-CoA reductase inhibition activity of the claimed compounds is measured in the in vitro protocol described below:
The In Vitro Determination of HMG-CoA Reductase Activity in Liver and the In Vitro Testing of Inhibitors
The procedure to measure in vitro HMG-CoA reductase activity in rat liver involves two steps and is based upon the procedure of Alberts et al:^1
1. Preparation of liver microsomal pellets.
2. Assay of the pellet for HMG-CoA reductase activity.
Reference: 1. Alberts, et al., Proceedings of the National Academy of Science, Vol. 77, pp. 3957-61 (1980).
Microsomes are prepared from livers of 150-200 g male rats (Charles River) maintained for a week on ground chow containing 2.0% cholestyramine, a bile acid sequestrant. The rats are sacrificed by cervical dislocation, and the livers removed immediately and chilled on ice. All subsequent operation are carried out at 0°-5° C.
Buffer I (for homogenization)
Procedure: all operation at 4° C.
Purification of HMG-CoA Reductase from Microsomal Pellet
Procedure: all operations are carried out at room temperature
The complete assay system is in a total volume of 0.8 ml in phosphate buffer at pH 7.2 (100 mM) with the cofactors at the following concentrations: MgCl2 3 mM; NADP, 3 mM; glucose-6-phosphate, 10 mM; glucose-6-phosphate dehydrogenase (ED 1.1.1.49) 3.0 enzyme units; reduced glutathione, 50 mM; HMG-CoA (Glutaryl-3-^14 C) 0.2 mM (0.1 μCi) and enzyme suspension, 0.1 ml.
The frozen pellet (enzyme) is allowed to thaw at room temperature for 5 minutes and carefully mixed with a stirring rod to a slurry with 0.1 ml of phosphate buffer (pH 7.2) and then diluted to 2.0 ml with the buffer. A volume (0.1 ml) of enzyme suspension is added to each incubation tube. Compounds to be tested are diluted to an appropriate concentration and added in a volume to 10 μ before adding the enzyme. An "untreated-control" is run along with the compounds.
The complete system is placed in 16×125 mm screw-cap culture tubes and shaken uncapped in a 37° C. water bath for 40 minutes at 160 oscillations per minute. At the end of this period the reaction is stopped by the addition of 0.4 ml of 8N HCl. 3 Mg of unlabeled mevalonolactone in 0.1 ml H2 O is added and the tubes shaken as before for an additional 30 minutes at 37° C. to ensure lactonization of the biosynthetic mevalonate.
200 μl of reaction mixture are applied to Bio-Rex 5 column (5 cm in a Pasteur pipette). Elute three times with one ml each of water into a scintillation vial. Add 10 ml of Aquasol-2, shake and count.
Bio-Rex is an ion-exchange resin, obtained from Bio-Rad. It comes dry in the chloride form and only the 100-200 mesh should be used. It is swelled in water for several hours; any fine particles should be decanted off as these will impair the flow rate. The hydrated resin should be stored at 4° C.
Each assay includes 2 untreated controls plus a "killed control" (reaction is stopped immediately before incubation by addition of 0.4 ml of 8N HCl).
After subtracting killed control CPM from all samples, percent inhibition by the test compounds is calculated as follows: [formula]
A general note: Liver microsomes are vesicles of endoplasmic reticulum, rich in cytochrome P450 enzymes.

A short description of data set [1]: Stability of the free hydroxy acid on standing. The class given is physicochemical. On the procedure: The sodium salt of the compound II from Example 17 is redissolved in 2 ml of ethanol-water (1:1) and added to 10 ml of 1N hydrochloric acid from which the hydroxy acid is extracted with ethyl acetate. The latter solvent is washed once with water, dried, and removed in vacuo with a bath temperature not exceeding 30° C.

SMILES strings stand for the structures.

What is called IC50 is the concentration needed to halve the response being measured. Read a high IC50 as weaker potency. As to `C[C@H]1C=C2C=C[C@H](C)[C@H](CC[C@@H](O)C[C@@H](O)CC(=O)O)[C@H]2[C@@H](OC(=O)C(C)(C)CO)C1` [n=1, R=H, R1=CH3, R2=CH3, R3=H], in the data set with HMG-CoA reductase, the “Relative Potency” value is given as 80 and it took 20 nM to reach half-maximal inhibition (IC50).

With `CC1C=C2C=CC(C)C(CCC(O)CC(O)CC(=O)O)C2C(OC(=O)C(C)(C)CCO)C1` [n=2, R=H, R1=CH3, R2=CH3, R3=H, 7-[1,2,6,7,8,8a(R)-Hexahydro-2(S),6(R)-dimethyl-8(S)-(2,2-dimethyl-4-hydroxybutyryloxy)naphthalenyl-1(S)]-3(R),5(R)-dihydroxyheptanoic acid], in data set [1], the “reversion of hydroxy acid to lactone” value is “slowly reverts to the lactone on standing”. Further, in the data set on HMG-CoA reductase, the “Relative Potency” value amounted to 64 and the IC50 is 15.6 nM.

Consider `CC(CCO)C(=O)O[C@H]1C[C@@H](C)C=C2C=C[C@H](C)[C@H](CC[C@@H](O)C[C@@H](O)CC(=O)O)[C@H]21` (stereo partly drawn) [n=2, R=H, R1=H, R2=CH3, R3=H], for which, in the data set with HMG-CoA reductase, the “Relative Potency” value turned out to be 30 and the IC50 stood at 40 nM.

In the case of `C[C@H]1C=C2C=C[C@H](C)[C@H](CC[C@@H](O)C[C@@H](O)CC(=O)O)[C@H]2[C@@H](OC(=O)C(C)(C)CCCO)C1` [n=3, R=H, R1=CH3, R2=CH3, R3=H], in the data set with HMG-CoA reductase, the “Relative Potency” value is recorded as 63 and half-maximal inhibition (IC50) required 30 nM.
